Test results reported in US11008554B2 (priority 2014, dated 2021).

Biological target: recombinant human AChE (Homo sapiens, UniProt P22303, D92N/S572N)
Assay type: biochemical

Chain of recombinant human AChE (P22303 whole entry D92N/S572N, looked up): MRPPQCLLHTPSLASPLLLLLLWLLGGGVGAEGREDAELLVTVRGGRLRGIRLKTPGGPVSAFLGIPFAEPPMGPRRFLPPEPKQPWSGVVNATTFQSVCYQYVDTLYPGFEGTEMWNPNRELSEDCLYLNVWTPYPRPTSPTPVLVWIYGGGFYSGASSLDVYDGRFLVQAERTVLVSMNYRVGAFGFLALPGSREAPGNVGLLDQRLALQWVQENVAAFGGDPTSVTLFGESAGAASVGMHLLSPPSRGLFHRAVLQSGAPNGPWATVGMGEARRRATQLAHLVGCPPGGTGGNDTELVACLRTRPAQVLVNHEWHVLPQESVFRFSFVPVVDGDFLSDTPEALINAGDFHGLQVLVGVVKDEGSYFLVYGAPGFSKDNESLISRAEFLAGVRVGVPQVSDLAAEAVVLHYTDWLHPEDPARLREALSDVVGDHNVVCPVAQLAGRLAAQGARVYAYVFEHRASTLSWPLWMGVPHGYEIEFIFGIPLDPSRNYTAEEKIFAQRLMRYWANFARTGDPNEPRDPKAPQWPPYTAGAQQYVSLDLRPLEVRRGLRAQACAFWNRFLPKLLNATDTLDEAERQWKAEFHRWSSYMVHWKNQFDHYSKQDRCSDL

## CCOP(=O)(OCC)Oc1ccc([N+](=O)[O-])cc1 [paraoxon]
  inhibition of AChE enzyme (localized red spot): inhibited
